# Source: ChEMBL document CHEMBL1201862, “PubChem BioAssay data set” (2004)
#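 Method: 48-hour compound exposure of cells in 96-well plates, five concentrations, linear interpolation of endpoints. Abbreviation: GI50, concentration required for 50% inhibition of growth.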 Active and inactive are the calls of the source. No stated cut-off is given here; in the data, active = GI50 up to about 1.1 µM and inactive = higher.
# Legend:
# Assay in all cases: growth of human tumour cells (NCI), 48 h
# HL-60 = system: HL-60
# SF-295 = system: SF-295
# K562 = system: K562
# SN12C = system: SN12C
# MOLT-4 = system: MOLT-4
# OVCAR-3 = system: OVCAR-3
# COLO 205 = system: COLO 205
# HOP-18 = system: HOP-18
# HCT-116 = system: HCT-116
# A498 = system: A498
# SK-MEL-28 = system: SK-MEL-28
# U-251 = system: U-251
# RXF 393 = system: RXF 393
# SK-OV-3 = system: SK-OV-3
# HOP-62 = system: HOP-62
# T47D = system: T47D
# Hs-578T = system: Hs-578T
# BT-549 = system: BT-549
# MCF7 = system: MCF7
# MDA-MB-435 = system: MDA-MB-435
Structure (SMILES),GI50 (HL-60),GI50 (SF-295),GI50 (K562),GI50 (SN12C),GI50 (MOLT-4),GI50 (OVCAR-3),GI50 (COLO 205),GI50 (HOP-18),GI50 (HCT-116),GI50 (A498),GI50 (SK-MEL-28),GI50 (U-251),GI50 (RXF 393),GI50 (SK-OV-3),GI50 (HOP-62),GI50 (T47D),GI50 (Hs-578T),GI50 (BT-549),GI50 (MCF7),GI50 (MDA-MB-435)
O=C1c2cccc3cc([N+](=O)[O-])cc(c23)C(=O)N1NC1=NCCN1,> 100 µM (inactive),> 100 µM (inactive),> 100 µM (inactive),> 100 µM (inactive),> 100 µM (inactive),> 100 µM (inactive),> 100 µM (inactive),> 100 µM (inactive),> 100 µM (inactive),> 100 µM (inactive),> 100 µM (inactive),> 100 µM (inactive),> 100 µM (inactive),> 100 µM (inactive),> 100 µM (inactive),–,–,–,–,–
Cc1ccc(NC(=O)C2C3C=CC(O3)C2C(=O)O)cc1 (configuration not stated),61.5 µM (inactive),> 100 µM (inactive),> 100 µM (inactive),> 100 µM (inactive),> 100 µM (inactive),> 100 µM (inactive),45 µM (inactive),> 100 µM (inactive),> 100 µM (inactive),> 100 µM (inactive),> 100 µM (inactive),> 100 µM (inactive),23.6 µM (inactive),> 100 µM (inactive),> 100 µM (inactive),–,–,–,–,–
O=C1c2ccccc2C(=O)c2sc(Nc3ccc(Cl)c(Cl)c3)nc21,0.256 µM (active),15.2 µM (inactive),3.21 µM (inactive),1.83 µM (inactive),1.02 µM (active),2.49 µM (inactive),8 µM (inactive),5.06 µM (inactive),3 µM (inactive),16.6 µM (inactive),7.35 µM (inactive),2.43 µM (inactive),7.4 µM (inactive),18 µM (inactive),7.38 µM (inactive),4.03 µM (inactive),6.92 µM (inactive),–,–,–
CC(C)C(=O)Nc1nc2[nH]cnc2c(=O)[nH]1,> 100 µM (inactive),> 100 µM (inactive),> 100 µM (inactive),> 100 µM (inactive),> 100 µM (inactive),> 100 µM (inactive),> 100 µM (inactive),> 100 µM (inactive),> 100 µM (inactive),> 100 µM (inactive),> 100 µM (inactive),> 100 µM (inactive),> 100 µM (inactive),> 100 µM (inactive),> 100 µM (inactive),–,–,–,–,–
N=C1OC(c2cccc(Cl)c2)C(NNS(=O)(=O)c2ccccc2)=C1O (configuration not stated),2.87 µM (inactive),57 µM (inactive),3.69 µM (inactive),44.7 µM (inactive),4.11 µM (inactive),23.1 µM (inactive),13.2 µM (inactive),> 100 µM (inactive),21.3 µM (inactive),> 100 µM (inactive),20.9 µM (inactive),33.3 µM (inactive),15.7 µM (inactive),> 100 µM (inactive),> 100 µM (inactive),10 µM (inactive),27.4 µM (inactive),37 µM (inactive),22.4 µM (inactive),33 µM (inactive)
CC(C)(C)c1cc(-c2c3nc(c(-c4cc(C(C)(C)C)cc(C(C)(C)C)c4)c4ccc([nH]4)c(-c4cc(C(C)(C)C)cc(C(C)(C)C)c4)c4nc(c(-c5cc(C(C)(C)C)cc(C(C)(C)C)c5)c5ccc2[nH]5)C=C4)C=C3)cc(C(C)(C)C)c1,> 100 µM (inactive),> 100 µM (inactive),> 100 µM (inactive),> 100 µM (inactive),> 100 µM (inactive),> 100 µM (inactive),> 100 µM (inactive),> 100 µM (inactive),> 100 µM (inactive),> 100 µM (inactive),> 100 µM (inactive),> 100 µM (inactive),> 100 µM (inactive),> 100 µM (inactive),> 100 µM (inactive),–,–,–,–,–
CN1CCC(=O)/C(=C/c2ccccc2)C1,9.35 µM (inactive),15.4 µM (inactive),5.24 µM (inactive),14.7 µM (inactive),7.74 µM (inactive),11.6 µM (inactive),13.7 µM (inactive),18.2 µM (inactive),1.78 µM (inactive),18.5 µM (inactive),18.2 µM (inactive),6.44 µM (inactive),13.7 µM (inactive),20.2 µM (inactive),20.6 µM (inactive),–,–,–,–,–
CCN(CC)CCOc1ccc(C(=C2CCCCC2)c2ccc(OCCN(CC)CC)cc2)cc1,0.299 µM (active),1.85 µM (inactive),0.267 µM (active),1.66 µM (inactive),0.612 µM (active),1.72 µM (inactive),1.34 µM (inactive),2.89 µM (inactive),1.25 µM (inactive),1.78 µM (inactive),1.32 µM (inactive),1.64 µM (inactive),1.59 µM (inactive),1.87 µM (inactive),1.77 µM (inactive),–,–,–,–,–
C=C(C)[C@H](O)C(O)CC(C)[C@@H]1CCC23CC12CCC1[C@@]2(C)CCC(OC(C)=O)C(C)(C)C2CC(OC2OC(COC(C)=O)C(O)C(O)C2O)[C@]13C (some centres not stated),1.62 µM (inactive),6.59 µM (inactive),2.42 µM (inactive),6.75 µM (inactive),2.34 µM (inactive),5.83 µM (inactive),6.61 µM (inactive),8.85 µM (inactive),3.8 µM (inactive),7.98 µM (inactive),7.19 µM (inactive),4.74 µM (inactive),2.9 µM (inactive),8 µM (inactive),6.92 µM (inactive),–,–,–,–,–
CC(=O)OC1CC[C@@]2(C)C(CC[C@]3(C)C2CC=C2[C@@H]4CC(C)(C)CCC4(C)CCC23C)[C@@]1(C)C(=O)O (some centres not stated),31.3 µM (inactive),17.9 µM (inactive),19.2 µM (inactive),16.4 µM (inactive),17.6 µM (inactive),15.1 µM (inactive),19.1 µM (inactive),21.9 µM (inactive),13.2 µM (inactive),19.2 µM (inactive),21.2 µM (inactive),10.3 µM (inactive),16.6 µM (inactive),17.7 µM (inactive),19.9 µM (inactive),15.4 µM (inactive),20.5 µM (inactive),29.9 µM (inactive),14.9 µM (inactive),15.2 µM (inactive)
